Measured values from PubChem BioAssay AID449725 (University of Pittsburgh Molecular Library Screening Center, 2010).
pIC50: −log10 of the molar value. Active and inactive are the calls of the source. No rule for the calls is given here.

System: IMR-90 human lung fibroblast viability counter screen
Assay: IMR-90 fibroblast viability reduction, dose response, cytotoxicity control, cell-based, IC50 (AID 449725);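 also: 48 hour compound exposure before the viability read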

SMILES | pIC50 | IC50
CN(C)c1ccc(NC(=O)Cn2sc3ccccc3c2=O)cc1 | 4.74 | –
O=C1c2cccc(Br)c2SCN1c1ccccc1 | – | > 25 µM (inactive)
O=C1c2ccccc2S(=O)N1c1ccc(Cl)cc1 (stereo unspecified) | – | > 25 µM (inactive)
O=C(Cn1sc2ccccc2c1=O)Nc1ccccc1C(F)(F)F | – | > 25 µM (inactive)
CC(C(=O)Nc1ccccc1)n1sc2ccccc2c1=O (stereo unspecified) | 4.79 | –
COc1ccc(C(=O)Nc2cc(Cl)ccc2C(=O)O)cn1 | – | > 25 µM (inactive)
COc1ccc(C(=O)Nc2cc(Cl)ccc2-c2noc(=O)[nH]2)cc1 | – | > 25 µM (inactive)
O=C(Nc1cc(Cl)ccc1C(=O)O)c1ccc2c(c1)CCCC2 | – | > 25 µM (inactive)
O=c1c2ccccc2sn1-c1ccccc1Cl | 5.32 | –
N#Cc1ccc(NC(=O)Cn2sc3ccccc3c2=O)cc1 | 4.71 | –
COc1ccc(C(=O)NCC(=O)O)cc1 | – | > 25 µM (inactive)
Cc1cc(=O)n(-c2ccccc2)s1 | 5.04 | –
O=C(Nc1cc(Cl)ccc1C(=O)O)c1ccc(C2CCCC2)cc1 | – | > 25 µM (inactive)
COC(=O)c1ccc(Cl)cc1NC(=O)c1ccc(Cl)cc1 | – | > 25 µM (inactive)
CCOC(=O)c1ccncc1NC(=O)c1ccc(OC)cc1 | – | > 25 µM (inactive)
Cn1sc2ccccc2c1=O | 5.63 | –
Cc1ccccc1NC(=O)Cn1sc2ccccc2c1=O | 5.13 | –
O=C(Nc1cc(Cl)ccc1C(=O)O)c1ccc(C(F)(F)F)cc1 | – | > 25 µM (inactive)
O=C(NCc1ccccc1)n1sc2ccccc2c1=O | – | > 25 µM (inactive)
N#Cc1ccc(Oc2ccc3c(c2)B(O)OC3)cc1 | – | > 25 µM (inactive)
O=c1ccsn1-c1ccccc1 | 5.24 | –
O=c1c(O)c(-c2ccc(O)c(O)c2)oc2cc(O)cc(O)c12 | – | > 25 µM (inactive)
O=C(Nc1cc(Cl)ccc1C(=O)O)c1ccoc1 | – | > 25 µM (inactive)

SMILES | pIC50 | IC50
O=C(O)c1ccccc1NC(=O)c1ccccc1C(=O)O | – | > 25 µM (inactive)
CCC(C)(C)c1ccc(C(=O)Nc2cc(Cl)ccc2C(=O)O)cc1 | – | > 25 µM (inactive)
N#Cc1ccc2c(=O)n(-c3ccccc3)sc2c1 | – | > 25 µM (inactive)
O=C(Cn1sc2ccccc2c1=O)Nc1cccc(C(F)(F)F)c1 | – | > 25 µM (inactive)
O=C(Nc1cc(Cl)ccc1C(=O)O)c1ccc(-c2ccccc2)cc1 | – | > 25 µM (inactive)
O=C(CCn1sc2ccccc2c1=O)Nc1ccccc1 | 5.00 | –
O=C(Nc1cc(Cl)ccc1C(=O)O)c1ccc2c(c1)CCC2 | – | > 25 µM (inactive)
Cc1cc(C(C#N)c2ccc(Cl)cc2)c(Cl)cc1NC(=O)c1cc(I)cc(I)c1O (stereo unspecified) | – | > 25 µM (inactive)
CCOC(=O)Cn1sc2ccccc2c1=O | 5.20 | –
CC(C)(C)c1ccc(C(=O)Nc2cc(Cl)ccc2C(=O)O)cc1 | – | > 25 µM (inactive)
COc1ccccc1NC(=O)Cn1sc2ccccc2c1=O | 4.91 | –
O=C(Cn1sc2ccccc2c1=O)Nc1ccc(I)cc1 | – | > 25 µM (inactive)
O=C(Cn1sc2cc(F)ccc2c1=O)Nc1ccccc1 | 4.83 | –
O=C(Cn1sc2ccccc2c1=O)Nc1ccc(Cl)cc1 | – | > 25 µM (inactive)
CC(C)(C)c1ccc(C(=O)N2CCC(=O)c3ccc(Cl)cc32)cc1 | – | > 25 µM (inactive)
CC(C)(C)c1ccc(C(=O)Nc2cc(Cl)c(F)cc2C(=O)O)cc1 | – | > 25 µM (inactive)
COc1ccc(C(=O)Nc2cc(C)ccc2C(=O)O)cc1 | – | > 25 µM (inactive)
Cc1ccccc1-n1sc2cc(F)ccc2c1=O | 5.25 | –
O=c1c2ccc(Br)cc2sn1-c1ccccc1 | – | > 25 µM (inactive)
COc1ccc(C(=O)Nc2c(C(=O)O)ccc(Cl)c2Cl)cc1 | – | > 25 µM (inactive)
CC1(c2ccc(C(=O)Nc3cc(Cl)ccc3C(=O)O)cc2)CC1 | – | > 25 µM (inactive)
CCCCCC(=O)Nc1cc(Cl)ccc1C(=O)O | – | > 25 µM (inactive)
O=C(Nc1cc(Cl)ccc1C(=O)O)c1ccc(C2CCC2)cc1 | – | > 25 µM (inactive)

SMILES | pIC50 | IC50
Cc1cccc(C(=O)Nc2cc(Cl)ccc2C(=O)O)c1 | – | > 25 µM (inactive)
COc1ccc(NC(=O)c2ccc(Cl)cc2C(=O)O)cc1 | – | > 25 µM (inactive)
COC(=O)c1ccc(Cl)cc1NC(=O)c1ccc(OC)cc1 | – | > 25 µM (inactive)
O=C(Nc1cc(Cl)ccc1C(=O)O)c1ccc(C2CC2)cc1 | – | > 25 µM (inactive)
O=c1c2ccccc2sn1-c1ccccc1 | 5.84 | –
COc1ccc(N2C(=O)c3ccc(Cl)cc3C2=O)cc1 | – | > 25 µM (inactive)
CC(C)(C)c1ccc(C(=O)Nc2cc(Br)ccc2C(=O)O)cc1 | – | > 25 µM (inactive)
COC(=O)c1ccc(Cl)cc1NC(=O)c1ccccc1OC | – | > 25 µM (inactive)
Cc1ccc(-n2sc3ccccc3c2=O)cc1 | 4.74 | –
CCCCCCCC(=O)Nc1cc(Cl)ccc1C(=O)O | – | > 25 µM (inactive)
O=c1c2ccccc2sn1-c1ccccc1F | 5.27 | –
COc1cccc(C(=O)Nc2cc(Cl)ccc2C(=O)O)c1 | – | > 25 µM (inactive)
COc1ccc(Nc2cc(Cl)ccc2C(=O)O)cc1 | – | > 25 µM (inactive)
OB1OCc2cc(C(F)(F)F)ccc21 | – | > 25 µM (inactive)
O=c1c2ccccc2sn1-c1ccc(Cl)cc1 | – | > 25 µM (inactive)
O=C(Cn1sc2ccccc2c1=O)NCc1ccccc1 | 5.20 | –
CC(=O)Nc1ccc2sn(-c3ccccc3)c(=O)c2c1 | 4.61 | –
COc1ccc(C(=O)Nc2cc(I)ccc2C(=O)O)cc1 | – | > 25 µM (inactive)
O=C(Cn1sc2ccccc2c1=O)N1CCCCC1 | 4.78 | –
COc1ccc(C(=O)Nc2cc(F)ccc2C(=O)O)cc1 | – | > 25 µM (inactive)
O=C(Nc1ccccc1)c1cc(F)ccc1S | – | > 25 µM (inactive)
COc1ccc(C(=O)Nc2cc(F)cc(F)c2O)cc1 | – | > 25 µM (inactive)
CCc1ccc(C(=O)Nc2cc(Br)ccc2C(=O)O)cc1 | – | > 25 µM (inactive)

SMILES | pIC50 | IC50
COc1cccc(CC(=O)Nc2cc(Cl)ccc2C(=O)O)c1 | – | > 25 µM (inactive)
O=C(Nc1cc(Cl)ccc1C(=O)O)c1ccncc1 | – | > 25 µM (inactive)
O=c1c2ccccc2sn1-c1ccc(Cl)cc1Cl | – | > 25 µM (inactive)
O=C(Nc1cc(Cl)ccc1C(=O)O)c1ccc(Cc2ccccc2)cc1 | – | > 25 µM (inactive)
N#Cc1ccccc1NC(=O)Cn1sc2ccccc2c1=O | – | > 25 µM (inactive)
CC(C)(C)c1ccc(C(=O)Nc2cc(Cl)c(Cl)cc2C(=O)O)cc1 | – | > 25 µM (inactive)
COc1ccc(C(=O)NC(CC(=O)O)c2ccccc2)cc1 (stereo unspecified) | – | > 25 µM (inactive)
COc1ccc(C(=O)Nc2cc(Cl)ccc2C(=O)O)cc1 | – | > 25 µM (inactive)
Cc1ccc(-n2sc3cc(F)ccc3c2=O)c(C)c1 | 5.19 | –
CCCc1ccc(C(=O)Nc2cc(Cl)ccc2C(=O)O)cc1 | – | > 25 µM (inactive)
COc1ccc(-n2sc3ccccc3c2=O)cc1 | 5.26 | –
COc1ccc(C(=O)NC(CC(=O)O)c2ccc(Cl)cc2)cc1 (stereo unspecified) | – | > 25 µM (inactive)
CC(=O)Nc1ccc2c(=O)n(-c3ccccc3)sc2c1 | – | > 25 µM (inactive)
O=C(O)c1ccc(Cl)cc1NC(=O)C1CCOCC1 | – | > 25 µM (inactive)
O=c1s[nH]c2ccccc12 | – | > 25 µM (inactive)
COc1ccc(NC(=O)c2ccccc2C(=O)O)cc1 | – | > 25 µM (inactive)
CC(C)(C)c1ccc(C(=O)Nc2cc(Cl)ccc2O)cc1 | – | > 25 µM (inactive)
O=c1c2cc(F)ccc2sn1-c1ccccc1Cl | 5.21 | –
COc1ccc(-c2cc3ccccc3[nH]2)cc1 | – | > 25 µM (inactive)
Cc1ccc(C(=O)Nc2cc(Cl)ccc2C(=O)O)c(C)c1 | – | > 25 µM (inactive)
O=C1c2ccccc2S(=O)N1c1cccc(F)c1 (stereo unspecified) | – | > 25 µM (inactive)
CCCCCCC(=O)Nc1cc(Cl)ccc1C(=O)O | – | > 25 µM (inactive)
COc1ccc2c(c1)CN(c1cc(Cl)ccc1C(=O)O)C2=O | – | > 25 µM (inactive)

SMILES | pIC50 | IC50
O=C(Nc1cc(Cl)ccc1C(=O)O)c1ccc(-c2cccs2)cc1 | – | > 25 µM (inactive)
COc1ccc(C(=O)N(C)c2cc(Cl)ccc2C(=O)O)cc1 | – | > 25 µM (inactive)
COc1ccc(NC(=O)c2ccccc2SCc2ccccc2)cc1 | – | > 25 µM (inactive)
CC(C)(C)c1ccc(C(=O)Nc2c(C(=O)O)ccc(Cl)c2Cl)cc1 | – | > 25 µM (inactive)
CC(C)c1ccc(C(=O)Nc2cc(Cl)ccc2C(=O)O)cc1 | – | > 25 µM (inactive)
O=c1c2ccccc2on1-c1ccccc1 | – | > 25 µM (inactive)
COc1ccc(C(=O)Nc2cc(Br)ccc2C(=O)O)cc1 | – | > 25 µM (inactive)
COc1ccc(CC(=O)Nc2cc(Cl)ccc2C(=O)O)cc1 | – | > 25 µM (inactive)
N#Cc1ccc2sn(-c3ccccc3)c(=O)c2c1 | – | > 25 µM (inactive)
Cc1ccccc1N1Cc2ccccc2C1=O | – | > 25 µM (inactive)
Cc1ccc(C(=O)Nc2cc(Cl)ccc2C(=O)O)cc1C | – | > 25 µM (inactive)
CCOc1ccc(C(=O)Nc2cc(Cl)ccc2C(=O)O)cc1 | – | > 25 µM (inactive)
COc1ccc(C(=O)Nc2ccccc2C(=O)O)cc1 | – | > 25 µM (inactive)
COc1cccc(NC(=O)Cn2sc3ccccc3c2=O)c1 | 5.06 | –
COc1ccc(C(=O)O)c(NC(=O)c2ccc(Cl)cc2)c1 | – | > 25 µM (inactive)
COc1ccc(C(=O)Nc2cc(C(=O)O)ccc2Cl)cc1 | – | > 25 µM (inactive)
COc1ccc(C(=O)Nc2cc(Cl)ccc2[N+](=O)[O-])cc1 | – | > 25 µM (inactive)
O=c1c2cc([N+](=O)[O-])ccc2sn1-c1ccccc1 | 4.99 | –
COc1ccc(C(=O)N2CCC(=O)c3ccc(Cl)cc32)cc1 | – | > 25 µM (inactive)
